Test results from patent US11026901B2, “Treatment or prevention of cardiovascular events via the administration of a colchicine derivative” (Murray and Poole Enterprises, LTD., priority 2012, dated 2021).

System: patients with angiographically proven, clinically stable coronary disease
Assay: LoDoCo trial: cardiovascular events with colchicine 0.5 mg/day added to standard secondary prevention therapy
Format: in vivo, human
Procedure: We employed a PROBE [Prospective Randomized, Open, Blinded End-point] design
All patients signed informed consent before randomization.
All other treatments were continued as usual.
The secondary outcomes were analysed similarly.

[1] = intention-to-treat, in each group
[2] = intention-to-treat, treatment [n = 282] vs control [n = 250]
[3] = on-treatment analysis, treatment [n = 243] vs control [n = 250]

COc1cc2c(c(OC)c1OC)-c1ccc(OC)c(=O)cc1[C@@H](NC(C)=O)CC2 [colchicine]
risk of a cardiovascular event, including an ACS, out of hospital cardiac arrest and non-cardio-embolic ischemic stroke (colchicine 0.5 mg/day added to standard therapy, stable coronary disease): significantly reduces
patients who died (colchicine group (ten in the control group)): 4 patients
Primary Outcome (composite ACS, out of hospital cardiac arrest or non-cardio-embolic ischemic stroke), patients with event (intention-to-treat, colchicine 0.5 mg/day [n = 282], median follow up 36 months): 15 n
number needed to treat, primary outcome (intention-to-treat, colchicine 0.5 mg/day vs control): 11
stent related ACS with evidence of acute stent thrombosis, patients [1]: 2
stent related ACS with evidence of significant in-stent stenosis, patients [1]: 2
Acute Coronary Syndrome, HR; 95% CI [2]: 0.33
Non-Stent Related ACS, HR; 95% CI [2]: 0.26
Non-Stent Related AMI, HR; 95% CI [2]: 0.25
Non-Stent Related UA, HR; 95% CI [2]: 0.27
Primary Outcome, HR 95% CI (intention-to-treat, treatment [n = 282] vs control [n = 250], cox proportional hazards): 0.33
Primary Outcome, patients with event (on-treatment analysis (tolerant and compliant beyond first month), colchicine 0.5 mg/day [n = 243]): 11 n
Acute Coronary Syndrome, HR; 95% CI [3]: 0.28 (0.13, 0.58)
Non-Cardio-Embolic Stroke, HR; 95% CI [3]: 0.27 (0.03, 2.42)
Non-Stent Related ACS, HR; 95% CI [3]: 0.21 (0.09, 0.50)
Non-Stent Related AMI, HR; 95% CI [3]: 0.30 (0.10, 0.91)
Non-Stent Related UA, HR; 95% CI [3]: 0.13 (0.03, 0.57)
OOH Cardiac Arrest, HR; 95% CI [3]: 0.55 (0.05, 6.03)
